According to publication PMC13586173, “Synthetic cannabinoid receptor agonists inhibit the cardiac voltage-gated potassium channel hERG” (Acta Pharmacologica Sinica, 2026):

Target: hERG (KV11.1) (Homo sapiens, UniProt Q12809)
Test: Automated planar patch-clamp (APC, QPatch II 48), voltage-ladder protocol, CHO cells stably expressing human hERG

Chain of hERG (KV11.1) (Q12809 whole entry): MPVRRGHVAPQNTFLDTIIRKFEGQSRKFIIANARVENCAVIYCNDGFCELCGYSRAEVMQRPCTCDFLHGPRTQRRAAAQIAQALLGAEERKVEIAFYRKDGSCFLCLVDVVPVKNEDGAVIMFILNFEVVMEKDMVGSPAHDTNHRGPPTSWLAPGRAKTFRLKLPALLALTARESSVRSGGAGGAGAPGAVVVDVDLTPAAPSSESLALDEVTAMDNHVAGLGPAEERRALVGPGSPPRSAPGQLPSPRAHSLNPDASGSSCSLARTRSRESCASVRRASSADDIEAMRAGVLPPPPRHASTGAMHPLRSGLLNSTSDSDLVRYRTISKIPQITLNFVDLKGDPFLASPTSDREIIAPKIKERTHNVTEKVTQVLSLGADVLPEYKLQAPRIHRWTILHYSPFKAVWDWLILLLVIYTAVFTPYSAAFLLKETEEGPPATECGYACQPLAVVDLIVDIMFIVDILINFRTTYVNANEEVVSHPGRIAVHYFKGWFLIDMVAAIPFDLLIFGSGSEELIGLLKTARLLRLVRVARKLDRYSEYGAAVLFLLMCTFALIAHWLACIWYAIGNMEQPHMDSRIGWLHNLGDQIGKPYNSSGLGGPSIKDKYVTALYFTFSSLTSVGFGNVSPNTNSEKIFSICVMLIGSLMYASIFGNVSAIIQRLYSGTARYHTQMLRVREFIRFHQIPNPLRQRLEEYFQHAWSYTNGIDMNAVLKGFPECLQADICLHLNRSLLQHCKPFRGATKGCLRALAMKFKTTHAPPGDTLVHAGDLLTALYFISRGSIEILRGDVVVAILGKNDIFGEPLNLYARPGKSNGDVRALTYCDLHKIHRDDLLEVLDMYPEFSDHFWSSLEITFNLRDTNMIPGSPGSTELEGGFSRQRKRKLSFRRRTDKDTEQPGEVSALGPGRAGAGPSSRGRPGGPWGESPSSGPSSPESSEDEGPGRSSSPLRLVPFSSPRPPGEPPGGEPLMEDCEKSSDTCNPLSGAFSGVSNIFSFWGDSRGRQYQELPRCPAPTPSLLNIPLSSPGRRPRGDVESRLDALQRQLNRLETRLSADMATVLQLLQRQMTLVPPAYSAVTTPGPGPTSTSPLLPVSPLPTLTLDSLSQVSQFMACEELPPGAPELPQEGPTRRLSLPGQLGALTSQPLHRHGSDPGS

## COC(=O)C(NC(=O)c1nn(CCCCCF)c2ccccc12)C(C)(C)C (stereo not drawn) [5F-MDMB-PINACA, methyl 2-{[1-(5-fluoropentyl)-1H-indazole-3-carbonyl]amino}-3,3-dimethylbutanoate]
  IC50: 9 µM
APC concentration-response, 1.11 to 30 µM
  effect on Gmax of hERG (in words): one of the most prominent in reducing Gmax of hERG
Best fit, 1 = no reduction of Gmax, 0 = complete reduction, APC, 22 °C
  hERG channel Efficacy (max reduction in Gmax) Gmin: 0.00
